Experimental data published in US8137705B2 (priority 2005, dated 2012).
“Also recorded” adds a separate entry of the source.

How the values were obtained:
Type in all cases: cell-based
[1] = system: E. coli O157:H7; experiment: E. coli O157:H7 counts in water containing rumen content or feces treated with chemicals or chemical combinations; settings: for E. coli O157:H7 counts (log10 cfu/ml) at min 0 / E. coli O157:H7 counts (log10 cfu/ml) at min 2 / E. coli O157:H7 counts (log10 cfu/ml) at min 5 / E. coli O157:H7 counts (log10 cfu/ml) at min 10 / E. coli O157:H7 counts (log10 cfu/ml) at min 20 / E. coli O157:H7 counts (log10 cfu/ml) at min 30 / E. coli O157:H7 counts (log10 cfu/ml) at min 60 / E. coli O157:H7 counts (log10 cfu/ml) at min 120: 21° C.; for E. coli O157:H7 counts (log10 cfu/ml) at min 0: 0 min; for E. coli O157:H7 counts (log10 cfu/ml) at min 2: 2 min; for E. coli O157:H7 counts (log10 cfu/ml) at min 5: 5 min; for E. coli O157:H7 counts (log10 cfu/ml) at min 10: 10 min; for E. coli O157:H7 counts (log10 cfu/ml) at min 20: 20 min; for E. coli O157:H7 counts (log10 cfu/ml) at min 30: 30 min; for E. coli O157:H7 counts (log10 cfu/ml) at min 60: 60 min; for E. coli O157:H7 counts (log10 cfu/ml) at min 120: 120 min
[2] = system: E. coli O111:NM; experiment: E. coli O111:NM counts in water containing rumen content or feces treated with chemical combinations; settings: 21° C.; for E. coli O111:NM counts (log10 cfu/ml) at min 0: 0 min; for E. coli O111:NM counts (log10 cfu/ml) at min 2: 2 min; for E. coli O111:NM counts (log10 cfu/ml) at min 5: 5 min; for E. coli O111:NM counts (log10 cfu/ml) at min 10: 10 min; for E. coli O111:NM counts (log10 cfu/ml) at min 20: 20 min; for E. coli O111:NM counts (log10 cfu/ml) at min 30: 30 min; for E. coli O111:NM counts (log10 cfu/ml) at min 60: 60 min; for E. coli O111:NM counts (log10 cfu/ml) at min 120: 120 min
[3] = system: E. coli O26:H11; experiment: E. coli O26:H11 counts in water containing rumen content or feces treated with chemical combinations; settings: 21° C.; for E. coli O26:H11 counts (log10 cfu/ml) at min: 0: 0 min; for E. coli O26:H11 counts (log10 cfu/ml) at min: 2: 2 min; for E. coli O26:H11 counts (log10 cfu/ml) at min: 5: 5 min; for E. coli O26:H11 counts (log10 cfu/ml) at min: 10: 10 min; for E. coli O26:H11 counts (log10 cfu/ml) at min: 20: 20 min; for E. coli O26:H11 counts (log10 cfu/ml) at min: 30: 30 min; for E. coli O26:H11 counts (log10 cfu/ml) at min: 60: 60 min; for E. coli O26:H11 counts (log10 cfu/ml) at min: 120: 120 min
[4] = system: E. coli O157:H7; experiment: E. coli O157:H7 counts in water with rumen content treated with ozone; settings: for E. coli O157:H7 (log10 cfu/ml) at min: 0: 0 min; for E. coli O157:H7 (log10 cfu/ml) at min: 1: 1 min; for E. coli O157:H7 (log10 cfu/ml) at min: 2: 2 min; for E. coli O157:H7 (log10 cfu/ml) at min: 5: 5 min; for E. coli O157:H7 (log10 cfu/ml) at min: 10: 10 min; for E. coli O157:H7 (log10 cfu/ml) at min: 20: 20 min
Protocol: Ozone was produced by an laboratory scale ozone generator (Model H-50, Hess Machine International, Ephrata, Pa.) equipped with an oxygen concentrator (Model AS-12, AirSep, Buffalo, N.Y.) and ozone concentrations (ppm) were measured by the indigo calorimeter method. Ozonated (22-24 ppm at 5° C.) water was mixed with rumen content at ratios of 100:1, 50:1, 25:1, 10:1, and 5:1. MilliQ water (Milli-Q Synthesis A10, Millipore Corp. Brillerica, Mass.) was used as the control. One ml of a mixture of 5 strains of E. coli O157:H7 (10^8 cfu) was mixed with 199 ml of the ozonated water with rumen content at 5° C. and sampled from 0 to 20 min. At each sampling time, 1 ml was removed, and immediately mixed with 9 ml of neutralizing buffer and serially (1:10) diluted and a volume of 0.1 ml from each dilution tube was plated on SMA-NA and TSA-NA plates in duplicate. Plates were incubated at 37° C. for 24 h. Presumptive E. coli O157:H7 colonies were counted and confirmed according to the method described above. All studies were done in duplicate.

[5] = water containing feces (20:1, v/w)
[6] = water containing rumen content (10:1, v/w)
[7] = 22-24 ppm ozone, Ozonated water only (no rumen content), 5° C.
[8] = 22-24 ppm ozone, water:rumen content 20:1, 5° C.
[9] = 22-24 ppm ozone, water:rumen content 50:1, 5° C.
[10] = 22-24 ppm ozone, water:rumen content 100:1, 5° C.
[11] = 22-24 ppm ozone, water:rumen content 200:1, 5° C.

CCCCCCCC(=O)O [0.05% caprylic acid, caprylic acid]
inactivation of E. coli O157:H7 within 20 minutes ([1]; butyric acid >2%, caprylic acid >0.1%, data not shown): substantial inactivation
E. coli O157:H7 counts (log10 cfu/ml) at min 0 [1, 5]: 6.0 log10 cfu/ml
E. coli O157:H7 counts (log10 cfu/ml) at min 2 [1, 5]: 5.6 log10 cfu/ml
E. coli O157:H7 counts (log10 cfu/ml) at min 5 [1, 5]: 4.3 log10 cfu/ml
E. coli O157:H7 counts (log10 cfu/ml) at min 10 [1, 5]: 2.3 log10 cfu/ml
E. coli O157:H7 counts (log10 cfu/ml) at min 20 [1, 5]: 2.0 log10 cfu/ml
E. coli O157:H7 counts (log10 cfu/ml) at min 30 [1, 5]: 2.0 log10 cfu/ml
E. coli O157:H7 counts (log10 cfu/ml) at min 60 [1, 5]: 2.0 log10 cfu/ml
E. coli O157:H7 counts (log10 cfu/ml) at min 120 [1, 5]: 1.7 log10 cfu/ml
E. coli O157:H7 counts (log10 cfu/ml) at min 0 [1, 6]: 6.0 log10 cfu/ml
E. coli O157:H7 counts (log10 cfu/ml) at min 2 [1, 6]: 6.0 log10 cfu/ml
E. coli O157:H7 counts (log10 cfu/ml) at min 5 [1, 6]: 6.0 log10 cfu/ml
E. coli O157:H7 counts (log10 cfu/ml) at min 10 [1, 6]: 5.9 log10 cfu/ml
E. coli O157:H7 counts (log10 cfu/ml) at min 20 [1, 6]: 6.0 log10 cfu/ml
E. coli O157:H7 counts (log10 cfu/ml) at min 30 [1, 6]: 5.9 log10 cfu/ml
E. coli O157:H7 counts (log10 cfu/ml) at min 60 [1, 6]: 5.9 log10 cfu/ml
E. coli O157:H7 counts (log10 cfu/ml) at min 120 [1, 6]: 6.0 log10 cfu/ml
E. coli O111:NM counts (log10 cfu/ml) at min 0 [2, 5]: 5.7 log10 cfu/ml
E. coli O111:NM counts (log10 cfu/ml) at min 2 [2, 5]: 5.5 log10 cfu/ml
E. coli O111:NM counts (log10 cfu/ml) at min 5 [2, 5]: 5.7 log10 cfu/ml
E. coli O111:NM counts (log10 cfu/ml) at min 10 [2, 5]: 5.5 log10 cfu/ml
E. coli O111:NM counts (log10 cfu/ml) at min 20 [2, 5]: 5.6 log10 cfu/ml
E. coli O111:NM counts (log10 cfu/ml) at min 30 [2, 5]: 5.7 log10 cfu/ml
E. coli O111:NM counts (log10 cfu/ml) at min 60 [2, 5]: 5.5 log10 cfu/ml
E. coli O111:NM counts (log10 cfu/ml) at min 120 [2, 5]: 5.4 log10 cfu/ml
E. coli O111:NM counts (log10 cfu/ml) at min 0 [2, 6]: 5.6 log10 cfu/ml
E. coli O111:NM counts (log10 cfu/ml) at min 2 [2, 6]: 5.5 log10 cfu/ml
E. coli O111:NM counts (log10 cfu/ml) at min 5 [2, 6]: 5.7 log10 cfu/ml
E. coli O111:NM counts (log10 cfu/ml) at min 10 [2, 6]: 5.5 log10 cfu/ml
E. coli O111:NM counts (log10 cfu/ml) at min 20 [2, 6]: 5.8 log10 cfu/ml
E. coli O111:NM counts (log10 cfu/ml) at min 30 [2, 6]: 5.6 log10 cfu/ml
E. coli O111:NM counts (log10 cfu/ml) at min 60 [2, 6]: 5.4 log10 cfu/ml
E. coli O111:NM counts (log10 cfu/ml) at min 120 [2, 6]: 5.5 log10 cfu/ml
E. coli O26:H11 counts (log10 cfu/ml) at min: 0 [3, 5]: 5.5 log10 cfu/ml
E. coli O26:H11 counts (log10 cfu/ml) at min: 2 [3, 5]: 5.4 log10 cfu/ml
E. coli O26:H11 counts (log10 cfu/ml) at min: 5 [3, 5]: 5.5 log10 cfu/ml
E. coli O26:H11 counts (log10 cfu/ml) at min: 10 [3, 5]: 5.5 log10 cfu/ml
E. coli O26:H11 counts (log10 cfu/ml) at min: 20 [3, 5]: 5.3 log10 cfu/ml
E. coli O26:H11 counts (log10 cfu/ml) at min: 30 [3, 5]: 5.2 log10 cfu/ml
E. coli O26:H11 counts (log10 cfu/ml) at min: 60 [3, 5]: 5.2 log10 cfu/ml
E. coli O26:H11 counts (log10 cfu/ml) at min: 120 [3, 5]: 5.0 log10 cfu/ml
E. coli O26:H11 counts (log10 cfu/ml) at min: 0 [3, 6]: 5.3 log10 cfu/ml
E. coli O26:H11 counts (log10 cfu/ml) at min: 2 [3, 6]: 5.4 log10 cfu/ml
E. coli O26:H11 counts (log10 cfu/ml) at min: 5 [3, 6]: 5.2 log10 cfu/ml
E. coli O26:H11 counts (log10 cfu/ml) at min: 10 [3, 6]: 5.4 log10 cfu/ml
E. coli O26:H11 counts (log10 cfu/ml) at min: 20 [3, 6]: 5.3 log10 cfu/ml
E. coli O26:H11 counts (log10 cfu/ml) at min: 30 [3, 6]: 5.4 log10 cfu/ml
E. coli O26:H11 counts (log10 cfu/ml) at min: 60 [3, 6]: 5.4 log10 cfu/ml
E. coli O26:H11 counts (log10 cfu/ml) at min: 120 [3, 6]: 5.4 log10 cfu/ml

O=[O+][O-] [ozone]
killing of 10^6-10^7 E. coli O157:H7/ml ([4]; 22-24 ppm ozone, 5° C., water with no rumen content, direct plating): undetectable level
E. coli O157:H7 inactivation ([4]; 22-24 ppm ozone, 50 parts water to 1 part rumen content): Little to no E. coli O157:H7 inactivation
effect of rumen content on antimicrobial activity of ozone ([4]; 22-24 ppm ozone, 100 parts water to 1 part rumen content or more): neutralized; also recorded: greatly decreased the antimicrobial activity
E. coli O157:H7 (log10 cfu/ml) at min: 0 [4, 7]: <1.7 log10 cfu/ml
E. coli O157:H7 (log10 cfu/ml) at min: 1 [4, 7]: <1.7 log10 cfu/ml
E. coli O157:H7 (log10 cfu/ml) at min: 2 [4, 7]: <1.7 log10 cfu/ml
E. coli O157:H7 (log10 cfu/ml) at min: 5 [4, 7]: <1.7 log10 cfu/ml
E. coli O157:H7 (log10 cfu/ml) at min: 10 [4, 7]: <1.7 log10 cfu/ml
E. coli O157:H7 (log10 cfu/ml) at min: 20 [4, 7]: <1.7 log10 cfu/ml
E. coli O157:H7 (log10 cfu/ml) at min: 0 [4, 8]: 5.6 log10 cfu/ml
E. coli O157:H7 (log10 cfu/ml) at min: 1 [4, 8]: 5.2 log10 cfu/ml
E. coli O157:H7 (log10 cfu/ml) at min: 2 [4, 8]: 5.1 log10 cfu/ml
E. coli O157:H7 (log10 cfu/ml) at min: 5 [4, 8]: 5.1 log10 cfu/ml
E. coli O157:H7 (log10 cfu/ml) at min: 10 [4, 8]: 5.4 log10 cfu/ml
E. coli O157:H7 (log10 cfu/ml) at min: 20 [4, 8]: 5.2 log10 cfu/ml
E. coli O157:H7 (log10 cfu/ml) at min: 0 [4, 9]: 6.2 log10 cfu/ml
E. coli O157:H7 (log10 cfu/ml) at min: 1 [4, 9]: 6.2 log10 cfu/ml
E. coli O157:H7 (log10 cfu/ml) at min: 2 [4, 9]: 6.4 log10 cfu/ml
E. coli O157:H7 (log10 cfu/ml) at min: 5 [4, 9]: 6.4 log10 cfu/ml
E. coli O157:H7 (log10 cfu/ml) at min: 10 [4, 9]: 6.5 log10 cfu/ml
E. coli O157:H7 (log10 cfu/ml) at min: 20 [4, 9]: 6.3 log10 cfu/ml
E. coli O157:H7 (log10 cfu/ml) at min: 0 [4, 10]: 5.2 log10 cfu/ml
E. coli O157:H7 (log10 cfu/ml) at min: 1 [4, 10]: 5.4 log10 cfu/ml
E. coli O157:H7 (log10 cfu/ml) at min: 2 [4, 10]: 5.5 log10 cfu/ml
E. coli O157:H7 (log10 cfu/ml) at min: 5 [4, 10]: 5.2 log10 cfu/ml
E. coli O157:H7 (log10 cfu/ml) at min: 10 [4, 10]: 4.5 log10 cfu/ml
E. coli O157:H7 (log10 cfu/ml) at min: 20 [4, 10]: 4.8 log10 cfu/ml
E. coli O157:H7 (log10 cfu/ml) at min: 0 [4, 11]: <1.7 log10 cfu/ml
E. coli O157:H7 (log10 cfu/ml) at min: 1 [4, 11]: <1.7 log10 cfu/ml
E. coli O157:H7 (log10 cfu/ml) at min: 2 [4, 11]: <1.7 log10 cfu/ml
E. coli O157:H7 (log10 cfu/ml) at min: 5 [4, 11]: <1.7 log10 cfu/ml
E. coli O157:H7 (log10 cfu/ml) at min: 10 [4, 11]: <1.7 log10 cfu/ml
E. coli O157:H7 (log10 cfu/ml) at min: 20 [4, 11]: <1.7 log10 cfu/ml
effect on killing E. coli O157:H7 ([4]; ozone 22-24 ppm at 5° C. or 8-12 ppm at 21° C., rumen content at ratios of 50:1 and higher): minimal effect
